{
  "source": "patent US7473789B2",
  "about": "“9-(1′,5′-dimethyl-1′-vinyl -4′- hexenyl)-4-hydroxy-7H-furo[3,2-γ] [1] benzopyran-7-one as antibacterial agent” (Takasago International Corporation, priority 2004, dated 2009)",
  "assay_type_in_all_cases": "cell-based",
  "key": {"[1]": {"tested_on": "Staphyrococcus epidermidis JCM 2414", "assay": "MIC by Agar Dilution Test, Se-1", "conditions": "read-out: Minimum inhibitory concentration (MIC)", "description": "(§1) Minimum inhibitory concentration (MIC) was determined by Agar Dilution Test (ADT).\n(§2) Samples were dissolved in ethanol or water (according to solubility of each sample) to carry out two-fold serial dilution. A hundred μl of the resultant was added to a 10 ml sterilized agar medium (skin-related bacteria and standard bacteria in Mueller-Hinton Medium (Difco), yeast and filamentous bacteria in Sabroud Medium (Difco) and anaerobic bacteria in Trypticase Soy agar(BBL)), well agitated, transferred to a 9 cmf petri dish and immobilized at room temperature. To this petri dish, a 27-spot microplanter MIT-P from Sakuma Seisakusho, LTD. was used to spot 1×10^5 cfu (colony forming unit) of skin-related bacteria and standard bacteria, and the resultants were cultured at 37° C. for 18 hours. Yeast and filamentous bacteria were spotted for 5000 cfu (except Cg-1 was 50˜100 cfu) and cultured at 27° C. for 72 hours. Anaerobic bacteria were cultured at 37° C. for 72 hours under anaerobic conditions (using BBL gas pack anaerobic system). After completion of cultivation, growth of each bacterium was compared with that in a petri dish with alcohol alone (blank). A concentration of a sample without a bacterium growth was determined as the minimum inhibitory concentration (MIC).\n(§3) As comparative substances, butylparaben (BPHB) and triclosan were determined as well."}, "[2]": {"tested_on": "Staphyrococcus epidermidis var. h-6 Takasago isolate", "assay": "MIC by Agar Dilution Test, Se-2", "conditions": "read-out: Minimum inhibitory concentration (MIC)", "description": "as §1, §2, §3"}, "[3]": {"tested_on": "Corynebacterium minutissimum IFO 15361", "assay": "MIC by Agar Dilution Test, Cm-1", "conditions": "read-out: Minimum inhibitory concentration (MIC)", "description": "as §1, §2, §3"}, "[4]": {"tested_on": "Corynebacterium xerosis JCM 1324", "assay": "MIC by Agar Dilution Test, Cx-2", "conditions": "read-out: Minimum inhibitory concentration (MIC)", "description": "as §1, §2, §3"}, "[5]": {"tested_on": "Malassezia furfur IFO 0656", "assay": "MIC by Agar Dilution Test, Mf-1", "conditions": "read-out: Minimum inhibitory concentration (MIC)", "description": "as §1, §2, §3"}, "[6]": {"tested_on": "Staphyrococcus aureus 209P IAM 12082", "assay": "MIC by Agar Dilution Test, Sa-3", "conditions": "read-out: Minimum inhibitory concentration (MIC)", "description": "as §1, §2, §3"}, "[7]": {"tested_on": "Bacillus subtilis PCI 219 IFO 3134", "assay": "MIC by Agar Dilution Test, Bs-1", "conditions": "read-out: Minimum inhibitory concentration (MIC)", "description": "as §1, §2, §3"}, "[8]": {"tested_on": "Staphyrococcus epidermidis ATCC 12228", "assay": "MIC by Agar Dilution Test, Se-3", "conditions": "read-out: Minimum inhibitory concentration (MIC)", "description": "as §1, §2, §3"}, "[9]": {"tested_on": "Staphyrococcus aureus ATCC 6538", "assay": "MIC by Agar Dilution Test, Sa-4", "conditions": "read-out: Minimum inhibitory concentration (MIC)", "description": "as §1, §2, §3"}, "[10]": {"tested_on": "Propionibacterium acnes JCM 6473", "assay": "MIC by Agar Dilution Test, Pa-2", "conditions": "Cutibacterium acnes, read-out: Minimum inhibitory concentration (MIC)", "description": "as §1, §2, §3"}, "[11]": {"tested_on": "Propionibacterium acnes ATCC 6919", "assay": "MIC by Agar Dilution Test, Pa-3", "conditions": "Cutibacterium acnes, read-out: Minimum inhibitory concentration (MIC)", "description": "as §1, §2, §3"}, "[12]": {"tested_on": "Bacteroides fragilis GM 7000 JCM 5560", "assay": "MIC by Agar Dilution Test, Bf-1", "conditions": "read-out: Minimum inhibitory concentration (MIC)", "description": "as §1, §2, §3"}, "[13]": {"tested_on": "Streptococcus mutans JCM 5175", "assay": "MIC by Agar Dilution Test, Su-1", "conditions": "read-out: Minimum inhibitory concentration (MIC)", "description": "as §1, §2, §3"}, "[14]": {"tested_on": "Fusobacterium nucleatum JCM 6328", "assay": "MIC by Agar Dilution Test, Fn-1", "conditions": "read-out: Minimum inhibitory concentration (MIC)", "description": "as §1, §2, §3"}, "[15]": {"tested_on": "Porphyromonas gingivalis JCM 8525", "assay": "MIC by Agar Dilution Test, Pg-1", "conditions": "read-out: Minimum inhibitory concentration (MIC)", "description": "as §1, §2, §3"}, "[16]": {"tested_on": "Prevotella intermedia JCM 6322", "assay": "MIC by Agar Dilution Test, Pt-1", "conditions": "read-out: Minimum inhibitory concentration (MIC)", "description": "as §1, §2, §3"}, "[17]": {"tested_on": "Actinomyces naeslundii JCM 8350", "assay": "MIC by Agar Dilution Test, Aa-1", "conditions": "read-out: Minimum inhibitory concentration (MIC)", "description": "as §1, §2, §3"}, "[18]": {"tested_on": "Actinomyces viscosus JCM 8352", "assay": "MIC by Agar Dilution Test, Av-1", "conditions": "read-out: Minimum inhibitory concentration (MIC)", "description": "as §1, §2, §3"}},
  "note": "Where two headings read alike, the source gives them in different places.",
  "data": [
    {"smiles": "Oc1cc(Cl)ccc1Oc1ccc(Cl)cc1Cl", "note": "[Triclosan]", "values": [
      {"measurement": "MIC", "setting": "[1]; 18 h", "result": 1.6, "unit": "µg/mL"},
      {"measurement": "MIC", "setting": "[2]; 18 h", "result": 1.6, "unit": "µg/mL"},
      {"measurement": "MIC", "setting": "[3]; IFO15361, 18 h", "result": 1.6, "unit": "µg/mL"},
      {"measurement": "MIC", "setting": "[4]; JCM1324, 18 h", "result": 3.1, "unit": "µg/mL"},
      {"measurement": "MIC", "setting": "[5]; 72 h", "result": 1.6, "unit": "µg/mL"},
      {"measurement": "MIC", "setting": "[6]; 18 h", "result": 1.6, "unit": "µg/mL"},
      {"measurement": "MIC", "setting": "[7]; IFO3134, 18 h", "result": 0.78, "unit": "µg/mL"},
      {"measurement": "MIC", "setting": "[8]; 18 h", "result": 1.6, "unit": "µg/mL"},
      {"measurement": "MIC", "setting": "[9]; 18 h", "result": 1.6, "unit": "µg/mL"}
    ]},
    {"smiles": "C=CC(C)(CCC=C(C)C)c1c2occc2c(O)c2ccc(=O)oc12", "note": "(stereo not drawn) [9-(1′,5′-dimethyl-1′-vinyl-4′-hexenyl)-4-hydroxy-7H-furo[3,2-γ][1]benzopyran-7-one]", "values": [
      {"measurement": "MIC", "setting": "[1]; Se-1, Mueller-Hinton Medium, 1×10^5 cfu, 37° C. for 18 hours", "result": 3.1, "unit": "µg/mL"},
      {"measurement": "MIC", "setting": "[2]; Se-2, Mueller-Hinton Medium, 1×10^5 cfu, 37° C. for 18 hours", "result": 3.1, "unit": "µg/mL"},
      {"measurement": "MIC", "setting": "[3]; IFO15361, Cm-1, Mueller-Hinton Medium, 1×10^5 cfu, 37° C. for 18 hours", "result": 3.1, "unit": "µg/mL"},
      {"measurement": "MIC", "setting": "[4]; JCM1324, Cx-2, Mueller-Hinton Medium, 1×10^5 cfu, 37° C. for 18 hours", "result": 3.1, "unit": "µg/mL"},
      {"measurement": "MIC", "setting": "[5]; Mf-1 (yeast), Sabroud Medium, 5000 cfu, 27° C. for 72 hours", "result": 3.1, "unit": "µg/mL"},
      {"measurement": "MIC", "setting": "[6]; Sa-3, Mueller-Hinton Medium, 1×10^5 cfu, 37° C. for 18 hours", "result": 3.1, "unit": "µg/mL"},
      {"measurement": "MIC", "setting": "[7]; IFO3134, Bs-1, Mueller-Hinton Medium, 1×10^5 cfu, 37° C. for 18 hours", "result": 3.1, "unit": "µg/mL"},
      {"measurement": "MIC", "setting": "[8]; Se-3, Mueller-Hinton Medium, 1×10^5 cfu, 37° C. for 18 hours", "result": 3.1, "unit": "µg/mL"},
      {"measurement": "MIC", "setting": "[9]; Sa-4, Mueller-Hinton Medium, 1×10^5 cfu, 37° C. for 18 hours", "result": 3.1, "unit": "µg/mL"},
      {"measurement": "MIC", "setting": "[10]; JCM6473, Pa-2, Trypticase Soy agar, 37° C. for 72 hours, anaerobic conditions", "result": 3.1, "unit": "µg/mL"},
      {"measurement": "MIC", "setting": "[11]; ATCC6919, Pa-3, Trypticase Soy agar, 37° C. for 72 hours, anaerobic conditions", "result": 3.1, "unit": "µg/mL"},
      {"measurement": "MIC", "setting": "[12]; JCM5560, Bf-1, Trypticase Soy agar, 37° C. for 72 hours, anaerobic conditions", "result": 1.6, "unit": "µg/mL"},
      {"measurement": "MIC", "setting": "[13]; JCM5175, Su-1, Trypticase Soy agar, 37° C. for 72 hours, anaerobic conditions", "result": 6.3, "unit": "µg/mL"},
      {"measurement": "MIC", "setting": "[14]; JCM6328, Fn-1, Trypticase Soy agar, 37° C. for 72 hours, anaerobic conditions", "result": 1.6, "unit": "µg/mL"},
      {"measurement": "MIC", "setting": "[15]; JCM8525, Pg-1, Trypticase Soy agar, 37° C. for 72 hours, anaerobic conditions", "result": 1.6, "unit": "µg/mL"},
      {"measurement": "MIC", "setting": "[16]; JCM6322, Pt-1, Trypticase Soy agar, 37° C. for 72 hours, anaerobic conditions", "result": 1.6, "unit": "µg/mL"},
      {"measurement": "MIC", "setting": "[17]; JCM8350, Aa-1, Trypticase Soy agar, 37° C. for 72 hours, anaerobic conditions", "result": 3.1, "unit": "µg/mL"},
      {"measurement": "MIC", "setting": "[18]; JCM8352, Av-1, Trypticase Soy agar, 37° C. for 72 hours, anaerobic conditions", "result": 3.1, "unit": "µg/mL"}
    ]},
    {"smiles": "CCCCOC(=O)c1ccc(O)cc1", "note": "[Butylparaben, butylparaben]", "values": [
      {"measurement": "MIC", "setting": "[1]; 18 h", "result": 200, "unit": "µg/mL"},
      {"measurement": "MIC", "setting": "[2]; 18 h", "result": 200, "unit": "µg/mL"},
      {"measurement": "MIC", "setting": "[3]; IFO15361, 18 h", "result": 200, "unit": "µg/mL"},
      {"measurement": "MIC", "setting": "[4]; JCM1324, 18 h", "result": 50, "unit": "µg/mL"},
      {"measurement": "MIC", "setting": "[5]; 72 h", "result": 100, "unit": "µg/mL"},
      {"measurement": "MIC", "setting": "[6]; 18 h", "result": 100, "unit": "µg/mL"},
      {"measurement": "MIC", "setting": "[7]; IFO3134, 18 h", "result": 200, "unit": "µg/mL"},
      {"measurement": "MIC", "setting": "[8]; 18 h", "result": 200, "unit": "µg/mL"},
      {"measurement": "MIC", "setting": "[9]; 18 h", "result": 200, "unit": "µg/mL"},
      {"measurement": "MIC", "setting": "[10]; JCM6473, 72 h", "result": 100, "unit": "µg/mL"},
      {"measurement": "MIC", "setting": "[11]; ATCC6919, 72 h", "result": 100, "unit": "µg/mL"},
      {"measurement": "MIC", "setting": "[12]; JCM5560, 72 h", "result": 50, "unit": "µg/mL"},
      {"measurement": "MIC", "setting": "[13]; JCM5175, 72 h", "result": 200, "unit": "µg/mL"},
      {"measurement": "MIC", "setting": "[14]; JCM6328, 72 h", "result": 100, "unit": "µg/mL"},
      {"measurement": "MIC", "setting": "[15]; JCM8525, 72 h", "result": 50, "unit": "µg/mL"},
      {"measurement": "MIC", "setting": "[16]; JCM6322, 72 h", "result": 100, "unit": "µg/mL"},
      {"measurement": "MIC", "setting": "[17]; JCM8350, 72 h", "result": 100, "unit": "µg/mL"},
      {"measurement": "MIC", "setting": "[18]; JCM8352, 72 h", "result": 100, "unit": "µg/mL"}
    ]}
  ]
}
